Patent US6355799B1, “Substituted benzene compounds, process for their preparation, and herbicidal and defoliant compositions containing them” (ISK Americas Incorporated, priority 1997, dated 2002)

Experiments:
Format in all cases: in vivo
[1] = system: redroot pigweed (Amaranthus retroflexus, AMARE); assay: Pre-emerge test, greenhouse herbicide activity screening; details: rating scale 0-100, 14 days after application
How it was run: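 Plants grown in 10 cm pots of sandy loam mix received acetone-dissolved compounds through a moving flat-fan nozzle. Doses ranged from 15 to 1000 g ai/ha. Pre-emerge pots were seeded one day earlier, post-emerge pots 8–21 days earlier. Fourteen days on, each pot was graded 0–100 for damage.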

[2] = system: barnyardgrass (Echinochloa crus-galli, ECHCG); assay: Post-emerge test, greenhouse herbicide activity screening; details: rating scale 0-100 (0 no damage, 100 complete death), 14 days after application
How it was run: (§1)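 Compounds in acetone were track-sprayed at 187 l/ha, 15–1000 g ai/ha, onto sandy loam pots. Pre-emerge seeds were sown one day before spraying, with surface watering afterwards. Post-emerge plants were at the 2–3 leaf stage and sprayed with 0.25% v/v non-ionic surfactant. Injury was rated 0–100 at 14 days.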

[3] = system: sicklepod (Cassia obtusifolia, CASOB); assay: as above; details: rating scale 0-100 (0 no damage, 100 complete death), 14 days after application
How it was run: as §1

[4] = system: common ragweed (Ambrosia artemisizfolia L., AMBEL); assay: as above; details: rating scale 0-100 (0 no damage, 100 complete death), 14 days after application
How it was run: as §1

[5] = system: velvetleaf (Abutilon theophrasti, ABUTH); assay: as above; details: rating scale 0-100 (0 no damage, 100 complete death), 14 days after application
How it was run: as §1

[6] = system: ivyleaf morningglory (Ipomoea hederacea, IPOHE); assay: as above; details: rating scale 0-100 (0 no damage, 100 complete death), 14 days after application
How it was run: as §1

[7] = system: large crabgrass (Digitaria sanguinalis, DIGSA); assay: as above; details: rating scale 0-100 (0 no damage, 100 complete death), 14 days after application
How it was run: as §1

[8] = system: lambsquarters (Chenopodium album, CHEAL); assay: as above; details: rating scale 0-100 (0 no damage, 100 complete death), 14 days after application
How it was run: as §1

[9] = system: johnsongrass (Sorghum halepense, SORHA); assay: as above; details: rating scale 0-100 (0 no damage, 100 complete death), 14 days after application
How it was run: as §1

[10] = system: green foxtail (Setaria viridis, SETVI); assay: as above; details: rating scale 0-100 (0 no damage, 100 complete death), 14 days after application
How it was run: as §1

[11] = system: redroot pigweed (Amaranthus retroflexus, AMARE); assay: as above; details: rating scale 0-100 (0 no damage, 100 complete death), 14 days after application
How it was run: as §1

[12] = system: upland rice (Oryza sp., var. Tebonnet, RICE); assay: Pre-emerge test, crop safety; details: rating scale 0-100, 14 days after application
How it was run: (§2)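 Sandy loam pots; pre-emerge: sown 1 d pre-spray, surface-watered after, then bottom-watered. Post-emerge: sown 8–21 d before, 2–3 leaf stage, + 0.25% v/v NIS, bottom-watered. Acetone, 187 l/ha track spray, 15–1000 g ai/ha. 0–100 injury score, day 14.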

[13] = system: field corn (Zea mays L., var. Dekalb 535, CORN); assay: Pre-emerge test, crop safety; details: rating scale 0-100, 14 days after application
How it was run: as §2

[14] = system: upland rice (Oryza sp., var. Tebonnet, RICE); assay: Post-emerge test, crop safety; details: rating scale 0-100 (0 no damage, 100 complete death), 14 days after application
How it was run: (§3)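 Compounds in acetone were track-sprayed at 15-1000 g ai/ha (187 l/ha) on sandy loam pots: pre-emerge one day after seeding, post-emerge at 2-3 leaf stage with 0.25% v/v non-ionic surfactant. Phytotoxicity was rated 14 days later on a 0 (no damage) to 100 (complete death) scale.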

[15] = system: field corn (Zea mays L., var. Dekalb 535, CORN); assay: Post-emerge test, crop safety; details: rating scale 0-100 (0 no damage, 100 complete death), 14 days after application
How it was run: as §3

[16] = system: barnyardgrass (Echinochloa crus-galli, ECHCG); assay: Pre-emerge test, greenhouse herbicide activity screening; details: rating scale 0-100, 14 days after application
How it was run: as §3

[17] = system: sicklepod (Cassia obtusifolia, CASOB); assay: as above; details: rating scale 0-100, 14 days after application
How it was run: as §3

[18] = system: velvetleaf (Abutilon theophrasti, ABUTH); assay: as above; details: rating scale 0-100, 14 days after application
How it was run: as §3

[19] = system: ivyleaf morningglory (Ipomoea hederacea, IPOHE); assay: as above; details: rating scale 0-100, 14 days after application
How it was run: as §3

[20] = system: large crabgrass (Digitaria sanguinalis, DIGSA); assay: as above; details: rating scale 0-100, 14 days after application
How it was run: as §3

[21] = system: lambsquarters (Chenopodium album, CHEAL); assay: as above; details: rating scale 0-100, 14 days after application
How it was run: as §3

[22] = system: johnsongrass (Sorghum halepense, SORHA); assay: as above; details: rating scale 0-100, 14 days after application
How it was run: as §3

[23] = system: green foxtail (Setaria viridis, SETVI); assay: as above; details: rating scale 0-100, 14 days after application
How it was run: as §3

With CCOC(=O)C(Br)Cc1c(OC)c(Cl)cc(F)c1-n1c(=O)cc(C(F)(F)F)n(C)c1=O (single isomer, unassigned) [14-33] the “Pre-emerge herbicidal activity, phytotoxicity rating AMARE” value ([1]; 63 g ai/ha) was 100, the “Pre-emerge herbicidal activity, phytotoxicity rating AMARE” value ([1]; 250 g ai/ha) was 100 and the “Post-emerge Herbicidal Activity, phytotoxicity rating ECHCG” value ([2]; Rate 63 g ai/ha) was 100. For the same molecule, the “Post-emerge Herbicidal Activity, phytotoxicity rating ECHCG” value ([2]; Rate 250 g ai/ha) was 100, the “Post-emerge Herbicidal Activity, phytotoxicity rating CASOB” value ([3]; Rate 63 g ai/ha) was 0 and the “Post-emerge Herbicidal Activity, phytotoxicity rating CASOB” value ([3]; Rate 250 g ai/ha) was 0. For the same molecule, the “Post-emerge Herbicidal Activity, phytotoxicity rating AMBEL” value ([4]; Rate 63 g ai/ha) was 0, the “Post-emerge Herbicidal Activity, phytotoxicity rating AMBEL” value ([4]; Rate 250 g ai/ha) was 100 and the “Post-emerge Herbicidal Activity, phytotoxicity rating ABUTH” value ([5]; Rate 63 g ai/ha) was 90. The “Post-emerge Herbicidal Activity, phytotoxicity rating ABUTH” value ([5]; Rate 250 g ai/ha) was 100, the “Post-emerge Herbicidal Activity, phytotoxicity rating IPOHE” value ([6]; Rate 63 g ai/ha) was 20 and the “Post-emerge Herbicidal Activity, phytotoxicity rating IPOHE” value ([6]; Rate 250 g ai/ha) was 20. For the same molecule, the “Post-emerge Herbicidal Activity, phytotoxicity rating DIGSA” value ([7]; Rate 63 g ai/ha) was 70, the “Post-emerge Herbicidal Activity, phytotoxicity rating DIGSA” value ([7]; Rate 250 g ai/ha) was 100 and the “Post-emerge Herbicidal Activity, phytotoxicity rating CHEAL” value ([8]; Rate 63 g ai/ha) was 20. The “Post-emerge Herbicidal Activity, phytotoxicity rating CHEAL” value ([8]; Rate 250 g ai/ha) was 70, the “Post-emerge Herbicidal Activity, phytotoxicity rating SORHA” value ([9]; Rate 63 g ai/ha) was 10 and the “Post-emerge Herbicidal Activity, phytotoxicity rating SORHA” value ([9]; Rate 250 g ai/ha) was 95. For the same molecule, the “Post-emerge Herbicidal Activity, phytotoxicity rating SETVI” value ([10]; Rate 63 g ai/ha) was 40, the “Post-emerge Herbicidal Activity, phytotoxicity rating SETVI” value ([10]; Rate 250 g ai/ha) was 90 and the “Post-emerge Herbicidal Activity, phytotoxicity rating AMARE” value ([11]; Rate 63 g ai/ha) was 100. For the same molecule, the “Post-emerge Herbicidal Activity, phytotoxicity rating AMARE” value ([11]; Rate 250 g ai/ha) was 100, the “Pre-emerge phytotoxicity rating, crop damage RICE” value ([12]; 63 g ai/ha) was 0 and the “Pre-emerge phytotoxicity rating, crop damage RICE” value ([12]; 250 g ai/ha) was 10. The “Pre-emerge phytotoxicity rating, crop damage CORN” value ([13]; 63 g ai/ha) was 10, the “Pre-emerge phytotoxicity rating, crop damage CORN” value ([13]; 250 g ai/ha) was 20 and the “Post-emerge phytotoxicity rating RICE (crop damage)” value ([14]; Rate 63 g ai/ha) was 0. The “Post-emerge phytotoxicity rating RICE (crop damage)” value ([14]; Rate 250 g ai/ha) was 0, the “Post-emerge phytotoxicity rating CORN (crop damage)” value ([15]; Rate 63 g ai/ha) was 10 and the “Post-emerge phytotoxicity rating CORN (crop damage)” value ([15]; Rate 250 g ai/ha) was 95. For the same molecule, the “Pre-emerge herbicidal activity, phytotoxicity rating ECHCG” value ([16]; 63 g ai/ha) was 0, the “Pre-emerge herbicidal activity, phytotoxicity rating ECHCG” value ([16]; 250 g ai/ha) was 0 and the “Pre-emerge herbicidal activity, phytotoxicity rating CASOB” value ([17]; 63 g ai/ha) was 0. For the same molecule, the “Pre-emerge herbicidal activity, phytotoxicity rating CASOB” value ([17]; 250 g ai/ha) was 0, the “Pre-emerge herbicidal activity, phytotoxicity rating ABUTH” value ([18]; 63 g ai/ha) was 20 and the “Pre-emerge herbicidal activity, phytotoxicity rating ABUTH” value ([18]; 250 g ai/ha) was 90. For the same molecule, the “Pre-emerge herbicidal activity, phytotoxicity rating IPOHE” value ([19]; 63 g ai/ha) was 0, the “Pre-emerge herbicidal activity, phytotoxicity rating IPOHE” value ([19]; 250 g ai/ha) was 0 and the “Pre-emerge herbicidal activity, phytotoxicity rating DIGSA” value ([20]; 63 g ai/ha) was 0. The “Pre-emerge herbicidal activity, phytotoxicity rating DIGSA” value ([20]; 250 g ai/ha) was 99, the “Pre-emerge herbicidal activity, phytotoxicity rating CHEAL” value ([21]; 63 g ai/ha) was 0 and the “Pre-emerge herbicidal activity, phytotoxicity rating CHEAL” value ([21]; 250 g ai/ha) was 90. For the same molecule, the “Pre-emerge herbicidal activity, phytotoxicity rating SORHA” value ([22]; 63 g ai/ha) was 0, the “Pre-emerge herbicidal activity, phytotoxicity rating SORHA” value ([22]; 250 g ai/ha) was 30 and the “Pre-emerge herbicidal activity, phytotoxicity rating SETVI” value ([23]; 63 g ai/ha) was 0. For the same molecule, the “Pre-emerge herbicidal activity, phytotoxicity rating SETVI” value ([23]; 250 g ai/ha) was 50.
